Structures are written as SMILES.

The test system of assay [1] is KB-V1^Vbl cervix carcinoma cells. Nature of the assay: MTT assay, KB-V1^Vbl cervix carcinoma cells. The assay is classed as cell-based. The following applies: Homo sapiens, read-out: IC50 KB-V1^Vbl (72 h). How it is done: (§1) HT-29 (ACC-299), HCT-116 (ACC-581) and DLD-1 (ACC-278) colon carcinoma, MCF-7 (ACC-115) breast carcinoma, KB-V1 (ACC-149), 518A2 (Department of Radiotherapy and Radiobiology, University Hospital Vienna) melanoma and Ea.Hy926 (ATCC no. CRL-2922) HUVEC derived endothelial hybrid cells line were grown in Dulbecco’s Modified Eagle Medium (DMEM; Biochrom), high glucose supplemented with 10% (v/v) fetal bovine serum (FBS; Biochrom.) and 1% (v/v) Antibiotic-Antimycotic solution (anti-anti; Thermo Scientific). HDFa human dermal fibroblasts (ATCC: PCS-201-012™) were grown in DMEM supplemented with 10% FBS, 1% anti-anti and 2 mM glutamine. The cells were incubated at 37 °C, 5% CO2, 95% humidified atmosphere. By repeated addition of topotecan or vinblastine at the maximum tolerated dose to the cell medium of MCF-7 and KB-V1 cells, the cells were rendered multidrug-resistant, indicated as MCF-7^Topo and KB-V1^Vbl, respectively. They were serially passaged following trypsinization by using 0.05% trypsin/0.02% EDTA (Biochrom). Mycoplasma contamination was routinely monitored, and only mycoplasma–free cultures were used.
(§2) MTT [3-(4,5-dimethylthiazol-2-yl)-2,5-diphenyltetrazolium bromide] (ABCR) was used to determine the cytotoxicity of test compounds as previously described. Briefly, HDFa human dermal fibroblasts and Ea.Hy926 endothelial hybrid cells (both 1 × 10^5 cells/mL, 100 µL/well), 518A2 melanoma, KB-V1^Vbl cervix carcinoma, MCF-7^Topo breast carcinoma, HT-29, DLD-1 and HCT-116 colon carcinoma (all 5 × 10^4 cells/mL, 100 µL/well) were grown in 96-well culture plates for 24 h. Then, various concentrations of the test compounds were added and the cells were incubated for 24-72 h at 37 °C. After adding 12.5 µL of a 0.5% MTT solution in PBS (final concentration 0.05%) to cell medium, microplates were incubated for 2 h and subsequently swiftly turned to discard the medium. The precipitate of formazan crystals was then dissolved in a 10% solution of SDS in DMSO containing 0.6% acetic acid. To ensure complete dissolution of formazan, microplates were incubated for at least 4 h at 37 °C. Finally, the absorbance at λ = 570 nm (formazan) and 630 nm (background) was measured using a microplate reader (Tecan F200). All experiments were carried out in quadruplicate and the percentage of viable cells was calculated as the mean ± SD with controls set to 100%. Selected graphs of MTT assays can be found in the Supporting Information (Figure S8).
In general terms: Formazan colour is commonly taken as a measure of viable cells.

The target of the next assay is T1, recombinant human HDAC6 (Homo sapiens, UniProt Q9UBN7).
T1 construct: purchased Biovision
T1 sequence (Q9UBN7 1-1215): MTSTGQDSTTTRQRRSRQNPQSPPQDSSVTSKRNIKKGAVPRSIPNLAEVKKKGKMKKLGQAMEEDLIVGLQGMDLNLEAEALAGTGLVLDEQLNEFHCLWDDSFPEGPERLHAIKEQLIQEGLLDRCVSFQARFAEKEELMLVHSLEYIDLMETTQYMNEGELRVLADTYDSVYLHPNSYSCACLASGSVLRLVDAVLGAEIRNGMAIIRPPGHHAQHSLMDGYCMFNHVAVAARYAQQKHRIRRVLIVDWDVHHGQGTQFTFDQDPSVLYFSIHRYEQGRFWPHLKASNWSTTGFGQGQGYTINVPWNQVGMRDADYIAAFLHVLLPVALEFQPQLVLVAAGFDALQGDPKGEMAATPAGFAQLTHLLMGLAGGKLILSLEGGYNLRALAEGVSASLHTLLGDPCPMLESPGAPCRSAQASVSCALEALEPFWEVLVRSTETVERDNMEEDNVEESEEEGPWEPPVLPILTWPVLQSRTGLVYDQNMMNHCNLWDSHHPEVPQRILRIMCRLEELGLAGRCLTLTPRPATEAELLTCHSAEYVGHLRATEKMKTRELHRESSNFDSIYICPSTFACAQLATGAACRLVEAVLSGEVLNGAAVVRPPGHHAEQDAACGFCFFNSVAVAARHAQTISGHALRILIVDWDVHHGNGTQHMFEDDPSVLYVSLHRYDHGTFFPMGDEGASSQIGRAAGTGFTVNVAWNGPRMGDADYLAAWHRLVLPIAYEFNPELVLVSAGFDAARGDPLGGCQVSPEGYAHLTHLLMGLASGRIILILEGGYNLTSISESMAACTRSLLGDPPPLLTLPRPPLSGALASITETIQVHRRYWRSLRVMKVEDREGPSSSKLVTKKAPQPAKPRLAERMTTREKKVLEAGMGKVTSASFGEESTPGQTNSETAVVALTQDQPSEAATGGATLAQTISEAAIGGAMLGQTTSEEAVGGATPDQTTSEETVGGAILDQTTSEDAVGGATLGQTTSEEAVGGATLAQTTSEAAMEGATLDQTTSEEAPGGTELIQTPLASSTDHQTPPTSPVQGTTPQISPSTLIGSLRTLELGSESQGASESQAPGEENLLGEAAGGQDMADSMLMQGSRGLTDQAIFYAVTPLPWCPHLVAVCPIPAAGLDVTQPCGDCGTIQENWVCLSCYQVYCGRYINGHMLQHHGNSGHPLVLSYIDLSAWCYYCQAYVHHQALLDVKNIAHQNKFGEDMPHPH
Description: HDAC6 inhibitor screening assay (fluorometric). The assay is classed as biochemical. Particulars: recombinant human HDAC6, mean ± SD of two experiments; read-out: HDAC inhibition IC50, HDAC6. As for the experimental part: The HDAC inhibitory potential of the novel compounds was determined by utilizing the deacetylase activity of recombinant human HDAC1 (HDAC1 Inhibitor Screening Assay Kit; Cayman Chemicals) or HDAC6 (HDAC6 Inhibitor Screening Kit (Fluorometric); Biovision) towards the corresponding synthetic acetylated-peptide substrates resulting in the release of a fluorescent product. The assays were performed according to manufacturer’s description of the in commercially available assay kits. […] The IC50 values were derived from dose-response curves and are expressed as the means ± SD of two independent experiments.

Assay [2] concerns DLD-1 colon carcinoma cells. Description: MTT assay, DLD-1 colon carcinoma cells. The class given is cell-based. Particulars: Homo sapiens, DLD-1, read-out: IC50 DLD-1 (72 h). How it is done: as §1, §2

For `COc1ccc(-c2ocnc2-c2cc(Br)c(OC)c(OC)c2)cc1OCCCC(=O)NO` [4d, N-Hydroxy-4-[1-methoxy-4-(4’-(3’’-bromo-4’’,5’’-dimethoxyphenyl)oxazol-5’-yl)-2-phenoxy]butanamide], the IC50 – broadly, the point on the concentration scale where inhibition reaches its midpoint – in assay [1] was found to be 480 ± 60 nM; on recombinant human HDAC6, 13800 ± 200 nM; in assay [2] it was 290 ± 20 nM.
The corresponding values for `COc1ccc(-c2ocnc2-c2cc(Br)c(OC)c(OC)c2)cc1OCCCCC(=O)NO` [4e, N-Hydroxy-5-[1-methoxy-4-(4’-(3’’-bromo-4’’,5’’-dimethoxyphenyl)oxazol-5’-yl)-2-phenoxy]pentanamide] are 2000 ± 300 nM, 3500 ± 100 nM and 2100 ± 400 nM.
The corresponding values for `COc1ccc(-c2ocnc2-c2cc(Br)c(OC)c(OC)c2)cc1OCCCCCC(=O)NO` [4f, N-Hydroxy-6-[1-methoxy-4-(4’-(3’’-bromo-4’’,5’’-dimethoxyphenyl)oxazol-5’-yl)-2-phenoxy]hexanamide] are 7100 ± 200 nM, 320 ± 20 nM and 4100 ± 300 nM.

These data come from PMC6359144 (International Journal of Molecular Sciences, 2019).
